Key:
[1] = cited from earlier work; for elimination / clearance route: in vivo
[2] = tested on: MMP-9 secretion from PHA-stimulated human white blood cells; assay: MMP assay: effect of doxycycline on MMP-9 secretion from PHA-stimulated human white blood cells; format: cell-based; details: PHA 10 μg/ml
Method: To perform an MMP assay to assess the effect of doxycycline on human-derived white blood cells, cells were seeded into 24 well tissue culture plates. The drug concentrations selected for the experiment were based on measured tissue levels of doxycycline following an oral dose of 100 mg. The cells were exposed to the drugs under two schemes. In scheme 1, the cells, the stimulant and the drug were all added at the same time and allowed to incubate for a period of 24 hours. In scheme 2 the cells were preconditioned with the drug for a period of 24 hours and then stimulated with PHA for an additional 24 hours. In this case the total experimental time duration was 48 hours. The seeding densities: 5×10^6 cells per well and assay conditions were as follows: PHA at a working concentration of 10 μg/ml; doxycycline concentrations at 0, 2.5, 5, 10, 12, or 15 μM and either a 24 hour (scheme 1) or 48 hour (scheme 2) duration. MMP-9 analysis was performed using a Quantikine Human MMP-9 (total) Immunoassay (R&D Systems, #DMP900).

[3] = tested on: MMP-9 expression in stimulated human-derived white blood cells; assay: Combination therapeutic assay, MMP-9 content; format: cell-based; details: DOX at 5.69 ug/ml, DEX at 1 ug/ml, alone or combined; 24 hours at 37° C.
Method: Next, to test the effect of therapeutics in combination, assays were performed to determine the effect of doxycycline alone (DOX at 5.69 ug/ml); dexamethasone alone (DEX at 1 ug/ml) and the effect of a combination of doxycycline and dexamethasone (DOX at 5.69 ug/ml)+DEX at 1 ug/ml). Dexamethasone is a potent agent with broad anti-inflammatory (against cytokines, chemokines, prostaglandins, etc.) and immunosuppressive properties. Dexamethasone also has known anti-angiogenic properties. Doxycycline was used as the MMP inhibitor for these studies.
Briefly, human-derived white blood cells were placed in a 24 well plate and exposed to a stimulant (PHA or lipopolysaccharide (LPS)) and the three different treatment regimes for a period of 24 hours at 37° C. The supernatants were then collected and assayed for MMP-9 and IL-1 content.

[4] = tested on: IL-1α expression in stimulated human-derived white blood cells; assay: Combination therapeutic assay, IL-1α content; format: cell-based; details: DOX at 5.69 ug/ml, DEX at 1 ug/ml, alone or combined; 24 hours at 37° C.
Method: To assay for cytokine concentration, the solution in each test well was transferred to microcentrifuge tubes and centrifuged (3000 rpm) for 5 minutes to pellet any cells that were drawn from the wells. The supernatants were then transferred to fresh tubes and stored in a minus 85° C. freezer until used. The cytokine content in the stored supernatants was determined using commercially available cytokine ELISA- (enzyme linked immunosorbent assays) based assays from, for example, R&D Systems, Minneapolis, Minn., using the manufacturer's instructions. Essentially, the procedure was as follows: first, 200 μl of the test samples were added to each well of the microplates. The wells of the microplates were precoated with monoclonal antibodies specific to the cytokine being analyzed. All lipopolysaccharide-(LPS) treated samples were diluted 1:10 in RPMI growth media prior to the assay. The plates were covered and incubated for 2 hours at room temperature. Each well was then washed three times with wash buffer (350 μl/well), and 200 μl of cytokine conjugate were added to each well, covered, and incubated for 1 hour at room temperature. Next, 200 μl of substrate solution were added to each well and incubated for 20 minutes at room temperature. […] The optical density readings of the color development were determined in a microplate reader set at 450 nm wavelength. […]

[5] = Stability assay of doxycycline and dexamethasone in combination; format: physicochemical; details: DOX (56.9 ug/ml)+DEX (10 ug/ml) mixture, 4 days at 37° C.
Method: A stability assay was first performed to ascertain whether doxycycline and dexamethasone react with one another. High concentrations of each solution were combined (DOX (56.9 ug/ml)+DEX (10 ug/ml)) and allowed to incubate for 4 days at 37° C. in an orbital shaker. At the end of four days the concentrations of each drug in the mixture was determined by spectrophotometry and compared to the original concentrations.

ACE = ACE (Homo sapiens, UniProt P12821); details: in vitro; cited from earlier work
Chain of ACE (P12821 30-1306, species assumed): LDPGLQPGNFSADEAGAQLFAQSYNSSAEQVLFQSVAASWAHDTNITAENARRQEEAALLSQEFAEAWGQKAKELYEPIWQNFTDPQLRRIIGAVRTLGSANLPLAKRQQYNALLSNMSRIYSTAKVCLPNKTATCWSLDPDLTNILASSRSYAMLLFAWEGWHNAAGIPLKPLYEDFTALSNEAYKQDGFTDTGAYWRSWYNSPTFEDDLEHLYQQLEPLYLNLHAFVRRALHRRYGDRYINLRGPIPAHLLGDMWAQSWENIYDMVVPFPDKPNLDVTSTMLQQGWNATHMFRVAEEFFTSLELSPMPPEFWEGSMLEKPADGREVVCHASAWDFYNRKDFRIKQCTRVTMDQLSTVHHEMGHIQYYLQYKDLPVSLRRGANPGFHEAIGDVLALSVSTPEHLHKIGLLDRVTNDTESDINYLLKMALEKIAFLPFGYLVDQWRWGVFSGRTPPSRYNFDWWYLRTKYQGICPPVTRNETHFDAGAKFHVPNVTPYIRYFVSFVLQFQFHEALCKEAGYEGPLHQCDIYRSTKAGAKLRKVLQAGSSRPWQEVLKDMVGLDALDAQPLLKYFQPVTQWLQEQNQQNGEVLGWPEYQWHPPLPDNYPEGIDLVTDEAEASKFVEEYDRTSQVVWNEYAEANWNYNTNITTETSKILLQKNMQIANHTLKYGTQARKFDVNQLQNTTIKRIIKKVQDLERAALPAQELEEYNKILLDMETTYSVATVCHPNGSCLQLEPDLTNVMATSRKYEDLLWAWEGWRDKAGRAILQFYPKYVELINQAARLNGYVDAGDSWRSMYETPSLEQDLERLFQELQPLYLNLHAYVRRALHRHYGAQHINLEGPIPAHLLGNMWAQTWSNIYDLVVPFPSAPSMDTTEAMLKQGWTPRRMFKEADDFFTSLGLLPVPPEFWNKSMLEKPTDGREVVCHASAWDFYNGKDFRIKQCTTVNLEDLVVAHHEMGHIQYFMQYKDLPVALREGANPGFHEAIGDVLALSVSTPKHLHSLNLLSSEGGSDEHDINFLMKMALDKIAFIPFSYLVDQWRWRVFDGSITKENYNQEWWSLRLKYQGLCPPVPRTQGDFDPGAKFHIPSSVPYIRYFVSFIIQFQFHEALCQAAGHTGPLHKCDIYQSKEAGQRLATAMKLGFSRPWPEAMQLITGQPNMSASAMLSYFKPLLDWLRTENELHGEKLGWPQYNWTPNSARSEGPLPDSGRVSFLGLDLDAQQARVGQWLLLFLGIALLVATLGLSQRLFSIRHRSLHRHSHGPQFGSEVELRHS

[6] = tested on: MMP-9 secretion from human-derived white blood cells; assay: MMP assay development: effect of stimulants on MMP-9 release from human-derived white blood cells; format: cell-based; details: PHA 10 μg/ml alone, five million (5M) cells per well, 24 hours at 37° C.
Source text: MMP assay development involved two separate determinations. The first set of experiments established the working conditions for the assay, namely the optimal cell density and the choice and concentration of stimulant. MMP-9 is secreted by monocytes, macrophages, and neutrophils, amongst other cells; however, under non-stimulatory in vitro conditions the basal level secretion of MMP-9 by these cells is very low. Thus, for the second set of experiments (performed to determine the inhibitory effects of potential drugs or reagents), the levels of MMP secretion were raised to sufficiently high levels so that drug-mediated differences could be detected.
Human-derived white blood cells were isolated from human blood by a procedure such as that described above. The total cell population was adjusted and added to 24 well polystyrene tissue culture plates in the following cell densities: 5 million, 2 million, 1 million and 0.5 million per well. The stimulants used to stimulate MMP secretion were PMA (phorbol 12-myristate 13-acetate, Sigma #P8139) at a working concentration of 100 nM; PHA (phythohemagglutinin, Sigma #L9017) at a working concentration of 10 μg/ml; and PMA (100 nM)+PHA (10 μg/ml). […] The secreted MMP was determined by ELISA using a Quantikine Human MMP-9 (total) Immunoassay (R&D Systems, #DMP900).

In the case of CCC(=O)O[C@@H](O[P@](=O)(CCCCc1ccccc1)CC(=O)N1C[C@H](C2CCCCC2)C[C@H]1C(=O)O)C(C)C [fosinopril], the “elimination / clearance route” value [1] is listed as “balanced elimination by the liver and kidneys”.

In the case of CC1c2cccc(O)c2C(=O)C2=C(O)C3(O)C(=O)C(C(N)=O)=C(O)C(N(C)C)C3C(O)C21.O (stereo not shown) [DOX, 4-(Dimethylamino)-1,4,4a,5,5a,6,11, 12a-octahydro-3,5,10,12,12a-pentahydroxy-6-methyl-1,11-dioxo-2-naphthacenecarboxamide monohydrate], the “effect on MMP-9 expression over 0-15 μM” value ([2]; doxycycline 0, 2.5, 5, 10, 12, or 15 μM) is reported as “dose-dependent inhibitory effect”, the “inhibition of MMP-9 expression” value ([2]; doxycycline at 15 μM, 5×10^6 cells per well, scheme 1 (24 hour) or scheme 2 (48 hour)) is reported as ~60% and the “inhibition of MMP-9 compared to the control” value [3] is reported as “approximately 32%”. For the same molecule, the “inhibition of IL expression compared to the control” value [4] was “no effect on inflammatory cytokine expression”, the “Final Concentration” value ([5]; MES buffer) was “˜56.7 ug/ml” and the “Final Concentration” value ([5]; PBS buffer) was “˜57.5/ml ug/ml”.

In the case of NCCCC[C@H](N[C@@H](CCc1ccccc1)C(=O)O)C(=O)N1CCC[C@H]1C(=O)O [lisinopril], the “ACE inhibitor potency compared with enalaprilat” value (ACE) is listed as “slightly more potent” and the “time of peak concentrations in the plasma” value ([1]; oral administration) is listed as “about 7 hours”.

In the case of CCOC(=O)[C@H](CCc1ccccc1)N[C@@H](C)C(=O)N1CC2(C[C@H]1C(=O)O)SCCS2 [spirapril], the “elimination / clearance route” value [1] is given as “balanced elimination by the liver and kidneys”.

For C[C@@H]1C[C@H]2[C@@H]3CCC4=CC(=O)C=C[C@]4(C)[C@@]3(F)[C@@H](O)C[C@]2(C)[C@@]1(O)C(=O)CO [DEX, dexamethasone], the “inhibition of IL expression compared to the control” value [4] was “approximately 85%”.

For phythohemagglutinin [PHA], the “increase in MMP-9 secretion over basal levels” value [6] was “greater than 200 fold”.

In the case of C[C@H](CS)C(=O)N1CCC[C@H]1C(=O)O [captopril], the bioavailability ([1]; given orally) is listed as “about 75%”.
